Values quoted from earlier work in US20170333424A1, “Amorphous Vortioxetine Hydrobromide” (Hexal AKTIENGESELLSCHAFT, priority 2014, published 2017).
Structures can show the parent of a compound that is named as a salt.

Conditions: class II means high permeability, but low solubility

BCS class: class II
Structure (SMILES): Cc1ccc(Sc2ccccc2N2CCNCC2)c(C)c1 [vortioxetine hydrobromide]
